Source: patent publication US9085551B2, “Solid forms of 3-(4-nitro-1-oxisoindolin-2-yl)piperidine-2,6-dione” (Celgene Corporation, priority 2012, dated 2015)
Entries after “also recorded” stand apart in the source; their conditions may differ.

Legend:
Format in all cases: physicochemical
[1] = Dynamic Vapor Sorption (DVS) hygroscopicity; details: for total mass change between 0% and 90% relative humidity: DVS at 25° C., 0% to 90% RH; for hygroscopicity: DVS, 0% to 90% relative humidity; for XRPD pattern after adsorption/desorption cycles: after DVS
Experimental: Hygroscopicity was determined on a Surface Measurement Systems DVS. Typically a sample size of 5-30 mg was loaded into the DVS instrument sample pan and the sample was analyzed on a DVS automated sorption analyzer at 25° C. The relative humidity was increased from 0% to 90% RH at 10% RH step. The relative humidity was then decreased in a similar manner to accomplish a full adsorption/desorption cycle.

[2] = Additional form conversion experiments (heating, slurry), XRPD
Experimental: (§1) All of the solid samples generated in the polymorph screen were analyzed by XRPD. XRPD analysis was conducted on a PANalytical Empyrean or a Thermo ARL X'TRA X-ray powder diffractometer using Cu Kα radiation at 1.54 Å.

[3] = Equilibration (slurry) of solid forms in batch solvents, solid analyzed by XRPD
Experimental: Equilibration studies using single, binary and ternary combinations of batch solvents (water, acetone, and acetonitrile) were investigated to mimic key steps in manufacturing 3-(4-nitro-1-oxoisoindolin-2-yl)piperidine-2,6-dione. Materials of 3-(4-nitro-1-oxoisoindolin-2-yl)piperidine-2,6-dione and solvent or solvent mixtures were added to a glass vial to achieve free-flowing slurry and allowed to equilibrate at the specified temperature. […] The solid phase was then dried under air and analyzed by XRPD.
A total of four batches of 3-(4-nitro-1-oxoisoindolin-2-yl)piperidine-2,6-dione were characterized by XRPD, DSC, TGA, ATR-FTIR and DVS, as described in section 6.5. The solid form represented by the batch 1 was designated as Form A; the solid form represented by the batch 4 was designated as Form B; the batches 2 and 3 were determined to be mixtures of Forms A and B, with Form B dominating the patterns. The equilibration experiments were performed using batches 2, 3 and 4, and the results are described in Table 2.
as §1

Structure (SMILES)	total mass change between 0% and 90% relative humidity [1]	hygroscopicity [1]	XRPD pattern after adsorption/desorption cycles [1]	form conversion ([2]; ambient temperature, NMP/acetone/water (1:2.5:2.5), time not stated)	XRPD Result ([2]; heated to 220° C. for 4 hours)	XRPD Result ([2]; slurry in NMP/Acetone/water at ambient for 5 days)	XRPD Result ([2]; slurry in NMP/Acetone/water at ambient for 10 days)	conversion to other forms ([3]; form conversion studies)	relative thermodynamic stability of the form ([3]; form conversion studies)	Form by XRPD ([3]; equilibration in acetone, ambient, 8 days)	Form by XRPD ([3]; equilibration in acetone/water (1:1), ambient, 8 days)	Form by XRPD ([3]; equilibration in acetonitrile, 80° C. (or reflux), 6 hours)	Form by XRPD ([3]; equilibration in acetonitrile/water (1:1), ambient, 8 days)	Form by XRPD ([3]; equilibration in acetonitrile/water (2:1), 60° C., 6 hours)	Form by XRPD ([3]; equilibration in acetonitrile/water/acetone (1:1:1), ambient, 8 days)	Form by XRPD ([3]; equilibration in water, ambient, 8 days)
O=C1CCC(N2Cc3c(cccc3[N+](=O)[O-])C2=O)C(=O)N1 (single isomer, unassigned) [Form C, 3-(4-nitro-1-oxoisoindolin-2-yl)piperidine-2,6-dione]	0.43%	not hygroscopic	no change	converts to Form A	partially converts to Form A; also recorded: Form A + C	Form A + C	Form A + C									
O=C1CCC(N2Cc3c(cccc3[N+](=O)[O-])C2=O)C(=O)N1 (single isomer, unassigned) [Form A, 3-(4-nitro-1-oxoisoindolin-2-yl)piperidine-2,6-dione]	0.42%	not hygroscopic	no change					no conversion	most thermodynamically stable form							
O=C1CCC(N2Cc3c(cccc3[N+](=O)[O-])C2=O)C(=O)N1 (single isomer, unassigned) [Form B, 3-(4-nitro-1-oxoisoindolin-2-yl)piperidine-2,6-dione]	0.39%	not hygroscopic	no change		converts to Form A					converts to Form A	converts to Form A	converts to Form A	converts to Form A	converts to Form A	converts to Form A	converts to Form A
